# Legend:
# [1] = target: Muscarinic acetylcholine receptor M4 (Homo sapiens, UniProt P08173); test: GPCRScan assay: inhibition of M4; set-up: radioligand conc. used [nm] 0.3 – 1.0, parental cells stable CHO
# [2] = target: Prostaglandin G/H synthase 2 (Homo sapiens) (UniProt P35354); test: COX-2 Eurofins SafetyScreen44 (BI); details: Compound concentration 10.0 uM
# [3] = target: 5-hydroxytryptamine receptor 2A (Homo sapiens) (UniProt P28223); test: 5HT2AH_AGON Eurofins SafetyScreen44 (BI); details: filed as agonist, Compound concentration 10.0 uM
# [4] = target: 5-hydroxytryptamine receptor 2B (Homo sapiens) (UniProt P41595); test: 5HT2B/H AG Eurofins SafetyScreen44 (BI); details: filed as agonist, Compound concentration 10.0 uM
# Sequence of 5-hydroxytryptamine receptor 2B (Homo sapiens) (P41595 whole entry): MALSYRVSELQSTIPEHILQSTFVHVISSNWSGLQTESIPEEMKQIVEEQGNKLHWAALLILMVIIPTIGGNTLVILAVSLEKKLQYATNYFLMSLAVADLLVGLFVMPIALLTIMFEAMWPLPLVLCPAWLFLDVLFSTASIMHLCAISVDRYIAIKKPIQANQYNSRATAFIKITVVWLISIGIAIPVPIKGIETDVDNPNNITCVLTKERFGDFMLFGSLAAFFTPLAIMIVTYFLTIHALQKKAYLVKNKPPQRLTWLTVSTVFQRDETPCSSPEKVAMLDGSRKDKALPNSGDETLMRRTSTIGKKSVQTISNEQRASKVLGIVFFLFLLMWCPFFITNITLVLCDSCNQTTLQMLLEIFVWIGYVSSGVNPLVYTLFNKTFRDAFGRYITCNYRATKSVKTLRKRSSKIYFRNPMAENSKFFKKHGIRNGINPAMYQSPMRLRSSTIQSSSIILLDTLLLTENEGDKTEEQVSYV
# [5] = target: Angiotensin-converting enzyme (Homo sapiens) (UniProt P12821); test: ACE(HU_AMTCH400) Eurofins SafetyScreen44 (BI); details: Compound concentration 10.0 uM
# [6] = target: Alpha-2A adrenergic receptor (Homo sapiens) (UniProt P08913); test: ALPHA2A/HU Eurofins SafetyScreen44 (BI); details: Compound concentration 10.0 uM
# [7] = target: Beta-1 adrenergic receptor (Homo sapiens) (UniProt P08588); test: BETA1/HUM Eurofins SafetyScreen44 (BI); details: Compound concentration 10.0 uM
# Sequence of Beta-1 adrenergic receptor (Homo sapiens) (P08588 whole entry, looked up): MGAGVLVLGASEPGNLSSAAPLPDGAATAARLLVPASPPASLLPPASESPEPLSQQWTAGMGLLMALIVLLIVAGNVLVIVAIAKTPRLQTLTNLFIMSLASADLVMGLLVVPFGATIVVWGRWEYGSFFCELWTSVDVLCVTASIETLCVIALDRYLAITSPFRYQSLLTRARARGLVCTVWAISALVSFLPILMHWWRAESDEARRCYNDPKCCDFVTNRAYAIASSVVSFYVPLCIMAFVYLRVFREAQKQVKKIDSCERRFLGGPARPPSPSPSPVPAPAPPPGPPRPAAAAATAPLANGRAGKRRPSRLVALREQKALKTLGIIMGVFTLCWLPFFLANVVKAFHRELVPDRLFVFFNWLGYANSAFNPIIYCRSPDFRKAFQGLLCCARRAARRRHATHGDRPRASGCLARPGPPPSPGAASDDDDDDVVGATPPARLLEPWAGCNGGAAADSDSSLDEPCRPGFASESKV
# [8] = target: L-type Ca2+ channel (dihydropyridine site), Cav1.2 alpha-1C (Rattus norvegicus, UniProt P22002); test: CA+/DHPSI/R Eurofins SafetyScreen44 (BI); details: rat brain, probe [3H](+)PN200-110, compound concentration 10 uM, read-out: % Ctrl
# [9] = target: Cannabinoid receptor 2 (Homo sapiens) (UniProt P34972); test: CB2/PERIPH/H Eurofins SafetyScreen44 (BI); details: Compound concentration 10.0 uM
# [10] = target: Sodium-dependent dopamine transporter (Homo sapiens) (UniProt Q01959); test: DATRANS/HUM Eurofins SafetyScreen44 (BI); details: Compound concentration 10.0 uM
# [11] = target: Histamine H1 receptor (Homo sapiens) (UniProt P35367); test: H1/PYRIL/HS Eurofins SafetyScreen44 (BI); details: Compound concentration 10.0 uM
# Sequence of Histamine H1 receptor (Homo sapiens) (P35367 whole entry): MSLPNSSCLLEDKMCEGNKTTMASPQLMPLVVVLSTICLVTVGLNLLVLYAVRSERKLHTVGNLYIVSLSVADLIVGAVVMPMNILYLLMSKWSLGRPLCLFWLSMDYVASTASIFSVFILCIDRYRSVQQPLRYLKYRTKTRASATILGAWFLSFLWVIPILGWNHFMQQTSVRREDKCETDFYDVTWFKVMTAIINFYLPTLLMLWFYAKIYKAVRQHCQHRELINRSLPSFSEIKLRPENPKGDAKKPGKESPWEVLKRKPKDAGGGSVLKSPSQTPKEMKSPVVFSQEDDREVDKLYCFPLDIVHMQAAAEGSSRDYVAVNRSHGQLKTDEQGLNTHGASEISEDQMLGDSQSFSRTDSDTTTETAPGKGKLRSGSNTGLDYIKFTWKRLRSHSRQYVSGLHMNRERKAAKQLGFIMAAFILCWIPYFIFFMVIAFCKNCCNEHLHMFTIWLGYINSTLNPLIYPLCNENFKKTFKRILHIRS
# hERG (KCNH2) = hERG (KCNH2) (Homo sapiens, UniProt Q12809); test: HERG_DOFETILIDE Eurofins SafetyScreen44 (BI); details: probe [3H]dofetilide, compound concentration 10 uM, read-out: % Ctrl
# [12] = target: MAO-A (amine oxidase [flavin-containing] A) (Rattus norvegicus, UniProt P21396); test: MAO-A_ANTAG Eurofins SafetyScreen44 (BI); set-up: scale not given: the % may be the effect or the level left; details: compound concentration 10 uM, read-out: % Ctrl
# [13] = target: cGMP-inhibited 3',5'-cyclic phosphodiesterase 3A (Homo sapiens) (UniProt Q14432); test: PDE3A Eurofins SafetyScreen44 (BI); details: Compound concentration 10.0 uM
# [14] = target: Sodium-dependent serotonin transporter (Homo sapiens) (UniProt P31645); test: SLC6A4/H Eurofins SafetyScreen44 (BI); details: filed as antagonist, Compound concentration 10.0 uM
# Sequence of Sodium-dependent serotonin transporter (Homo sapiens) (P31645 whole entry, looked up): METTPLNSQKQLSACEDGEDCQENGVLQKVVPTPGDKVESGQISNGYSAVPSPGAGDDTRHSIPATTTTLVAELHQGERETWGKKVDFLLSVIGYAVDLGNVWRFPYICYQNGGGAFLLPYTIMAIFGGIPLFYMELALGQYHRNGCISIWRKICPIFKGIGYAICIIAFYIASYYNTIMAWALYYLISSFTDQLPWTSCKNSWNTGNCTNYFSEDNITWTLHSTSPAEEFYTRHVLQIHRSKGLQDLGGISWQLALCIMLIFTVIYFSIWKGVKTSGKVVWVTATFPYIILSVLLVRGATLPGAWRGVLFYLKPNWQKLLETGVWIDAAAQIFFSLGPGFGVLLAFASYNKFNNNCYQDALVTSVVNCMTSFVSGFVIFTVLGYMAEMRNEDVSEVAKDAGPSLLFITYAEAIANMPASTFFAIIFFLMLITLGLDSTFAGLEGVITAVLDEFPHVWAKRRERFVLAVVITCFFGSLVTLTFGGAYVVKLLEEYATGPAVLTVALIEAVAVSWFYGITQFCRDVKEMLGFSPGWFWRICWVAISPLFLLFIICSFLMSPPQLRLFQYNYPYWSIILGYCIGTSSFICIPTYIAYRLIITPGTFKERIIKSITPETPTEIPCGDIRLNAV
# [15] = target: Tyrosine-protein kinase ABL1 (Homo sapiens) (UniProt P00519); test: ABL1 Invitrogen Lab (UK) kinase screen (BI); details: Compound concentration 1.0 uM
# [16] = target: Aurora kinase B (Homo sapiens) (UniProt Q96GD4); test: AURKB Invitrogen Lab (UK) kinase screen (BI); details: Compound concentration 1.0 uM
# [17] = target: Serine/threonine-protein kinase Chk2 (Homo sapiens) (UniProt O96017); test: CHEK2 Invitrogen Lab (UK) kinase screen (BI); details: Compound concentration 1.0 uM
# [18] = target: Casein kinase I isoform alpha (Homo sapiens) (UniProt P48729); test: CSNK1A1 Invitrogen Lab (UK) kinase screen (BI); details: Compound concentration 1.0 uM
# [19] = target: Inhibitor of nuclear factor kappa-B kinase subunit beta (Homo sapiens) (UniProt O14920); test: IKBKB Invitrogen Lab (UK) kinase screen (BI); details: Compound concentration 1.0 uM
# [20] = target: Vascular endothelial growth factor receptor 2 (Homo sapiens) (UniProt P35968); test: KDR Invitrogen Lab (UK) kinase screen (BI); details: Compound concentration 1.0 uM
# [21] = target: Mitogen-activated protein kinase 1 (Homo sapiens) (UniProt P28482); test: MAPK1 Invitrogen Lab (UK) kinase screen (BI); details: Compound concentration 1.0 uM
# [22] = target: Mitogen-activated protein kinase 14 (Homo sapiens) (UniProt Q16539); test: MAPK14 Invitrogen Lab (UK) kinase screen (BI); details: Compound concentration 1.0 uM
# [23] = target: Mitogen-activated protein kinase 8 (Homo sapiens) (UniProt P45983); test: MAPK8 Invitrogen Lab (UK) kinase screen (BI); details: Compound concentration 1.0 uM
# [24] = target: Mitogen-activated protein kinase 9 (Homo sapiens) (UniProt P45984); test: MAPK9 Invitrogen Lab (UK) kinase screen (BI); details: Compound concentration 1.0 uM
# [25] = target: MAP kinase-activated protein kinase 2 (Homo sapiens) (UniProt P49137); test: MAPKAPK2 Invitrogen Lab (UK) kinase screen (BI); details: Compound concentration 1.0 uM
# [26] = target: Phosphatidylinositol 4,5-bisphosphate 3-kinase catalytic subunit gamma isoform (Homo sapiens) (UniProt P48736); test: PIK3CG Invitrogen Lab (UK) kinase screen (BI); details: Compound concentration 1.0 uM
# [27] = target: Rho-associated protein kinase 2 (Homo sapiens) (UniProt O75116); test: ROCK2 Invitrogen Lab (UK) kinase screen (BI); details: Compound concentration 1.0 uM
# [28] = target: Ribosomal protein S6 kinase beta-1 (Homo sapiens) (UniProt P23443); test: RPS6KB1 Invitrogen Lab (UK) kinase screen (BI); details: Compound concentration 1.0 uM
# [29] = target: Serine/threonine-protein kinase 3 (Homo sapiens) (UniProt Q13188); test: STK3 Invitrogen Lab (UK) kinase screen (BI); details: Compound concentration 1.0 uM
# [30] = target: 5-hydroxytryptamine receptor 1A (Homo sapiens) (UniProt P08908); details: Compound concentration 10.0 uM
# Sequence of 5-hydroxytryptamine receptor 1A (Homo sapiens) (P08908 whole entry): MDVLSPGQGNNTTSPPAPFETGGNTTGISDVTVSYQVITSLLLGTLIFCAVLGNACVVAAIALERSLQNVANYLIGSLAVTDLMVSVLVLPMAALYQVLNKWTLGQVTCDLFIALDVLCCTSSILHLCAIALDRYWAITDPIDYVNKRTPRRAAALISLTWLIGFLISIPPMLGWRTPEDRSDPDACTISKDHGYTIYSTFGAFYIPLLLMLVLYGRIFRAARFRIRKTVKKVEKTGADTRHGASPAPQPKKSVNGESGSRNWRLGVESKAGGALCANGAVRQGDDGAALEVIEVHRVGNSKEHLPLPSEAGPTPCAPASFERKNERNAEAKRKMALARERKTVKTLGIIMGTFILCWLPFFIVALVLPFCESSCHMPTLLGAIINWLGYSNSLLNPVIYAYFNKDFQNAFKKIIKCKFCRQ
# [31] = target: 5-hydroxytryptamine receptor 2B (Homo sapiens) (UniProt P41595); details: Compound concentration 10.0 uM
# [32] = target: 5-hydroxytryptamine receptor 3A (Homo sapiens) (UniProt P46098); details: Compound concentration 10.0 uM
# Sequence of 5-hydroxytryptamine receptor 3A (Homo sapiens) (P46098 whole entry): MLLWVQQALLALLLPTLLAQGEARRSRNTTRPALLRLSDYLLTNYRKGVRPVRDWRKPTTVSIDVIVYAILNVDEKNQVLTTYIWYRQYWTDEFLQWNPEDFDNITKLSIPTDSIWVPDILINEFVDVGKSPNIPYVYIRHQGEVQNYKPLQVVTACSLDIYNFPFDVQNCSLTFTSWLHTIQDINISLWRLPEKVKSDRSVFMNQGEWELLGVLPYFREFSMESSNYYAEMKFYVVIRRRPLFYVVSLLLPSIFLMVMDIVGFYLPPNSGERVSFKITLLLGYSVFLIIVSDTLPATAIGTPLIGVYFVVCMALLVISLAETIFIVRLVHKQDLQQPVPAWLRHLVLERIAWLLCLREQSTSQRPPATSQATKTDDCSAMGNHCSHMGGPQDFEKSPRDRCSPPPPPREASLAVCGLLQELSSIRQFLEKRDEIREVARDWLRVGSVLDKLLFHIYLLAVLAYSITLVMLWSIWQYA
# [33] = target: Histamine H1 receptor (Homo sapiens) (UniProt P35367); details: Compound concentration 10.0 uM
# [34] = target: Beta-1 adrenergic receptor (Homo sapiens) (UniProt P08588); details: Compound concentration 10.0 uM
# [35] = target: Beta-2 adrenergic receptor (Homo sapiens) (UniProt P07550); details: Compound concentration 10.0 uM
# Sequence of Beta-2 adrenergic receptor (Homo sapiens) (P07550 whole entry, looked up): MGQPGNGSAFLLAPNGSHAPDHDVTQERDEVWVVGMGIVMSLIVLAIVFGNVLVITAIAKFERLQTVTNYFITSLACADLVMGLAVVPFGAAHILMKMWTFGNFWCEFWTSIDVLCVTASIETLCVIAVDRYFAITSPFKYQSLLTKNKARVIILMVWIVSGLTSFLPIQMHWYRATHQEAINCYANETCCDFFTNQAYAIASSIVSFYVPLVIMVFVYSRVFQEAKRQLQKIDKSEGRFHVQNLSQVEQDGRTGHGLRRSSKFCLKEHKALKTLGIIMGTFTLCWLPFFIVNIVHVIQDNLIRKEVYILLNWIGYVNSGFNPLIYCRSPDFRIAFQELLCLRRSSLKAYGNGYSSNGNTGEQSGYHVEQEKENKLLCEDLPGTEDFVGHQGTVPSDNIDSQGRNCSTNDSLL
# [36] = target: Muscarinic acetylcholine receptor M5 (Homo sapiens) (UniProt P08912); details: Compound concentration 10.0 uM
# Sequence of Muscarinic acetylcholine receptor M5 (Homo sapiens) (P08912 whole entry): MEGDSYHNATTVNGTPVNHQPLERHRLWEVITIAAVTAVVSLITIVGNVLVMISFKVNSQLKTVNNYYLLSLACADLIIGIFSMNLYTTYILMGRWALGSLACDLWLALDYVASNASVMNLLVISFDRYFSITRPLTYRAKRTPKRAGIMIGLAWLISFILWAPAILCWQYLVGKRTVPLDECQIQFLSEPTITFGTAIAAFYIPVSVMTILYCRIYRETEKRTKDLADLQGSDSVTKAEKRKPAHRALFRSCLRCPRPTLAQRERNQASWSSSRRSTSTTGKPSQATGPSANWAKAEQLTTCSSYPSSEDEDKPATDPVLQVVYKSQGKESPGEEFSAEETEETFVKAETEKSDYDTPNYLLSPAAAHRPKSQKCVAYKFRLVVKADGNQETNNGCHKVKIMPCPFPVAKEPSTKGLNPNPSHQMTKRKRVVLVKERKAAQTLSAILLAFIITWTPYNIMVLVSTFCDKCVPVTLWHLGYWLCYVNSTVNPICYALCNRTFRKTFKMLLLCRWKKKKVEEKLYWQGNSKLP
# [37] = target: Beta-3 adrenergic receptor (Homo sapiens) (UniProt P13945); details: Compound concentration 10.0 uM
# Sequence of Beta-3 adrenergic receptor (Homo sapiens) (P13945 whole entry, looked up): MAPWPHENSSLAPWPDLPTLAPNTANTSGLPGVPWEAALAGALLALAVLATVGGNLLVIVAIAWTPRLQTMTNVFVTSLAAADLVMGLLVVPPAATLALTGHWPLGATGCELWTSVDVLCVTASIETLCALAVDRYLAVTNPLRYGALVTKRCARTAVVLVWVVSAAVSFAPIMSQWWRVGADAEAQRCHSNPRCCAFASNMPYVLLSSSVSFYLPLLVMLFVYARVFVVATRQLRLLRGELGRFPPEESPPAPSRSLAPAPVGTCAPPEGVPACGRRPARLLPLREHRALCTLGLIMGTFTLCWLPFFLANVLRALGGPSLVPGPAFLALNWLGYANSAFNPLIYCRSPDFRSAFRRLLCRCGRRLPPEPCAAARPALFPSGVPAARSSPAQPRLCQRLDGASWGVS
# [38] = target: GABA-A receptor; anion channel (Rattus norvegicus) (UniProt O09028+P15431+P18506+P18508+P19969+P20236+P23574+P23576+P28471+P28473+P30191+P62813+P63079+P63138+Q91ZM7+Q9ES14); details: Compound concentration 10.0 uM
# Rattus norvegicus = species on record: Rattus norvegicus; details: Compound concentration 10.0 uM
# [39] = target: 3-phosphoinositide-dependent protein kinase 1 (Homo sapiens) (UniProt O15530); test: PDK1 Invitrogen Lab (UK) kinase screen (BI); details: Compound concentration 1.0 uM
# Sequence of Muscarinic acetylcholine receptor M4 (P08173 whole entry): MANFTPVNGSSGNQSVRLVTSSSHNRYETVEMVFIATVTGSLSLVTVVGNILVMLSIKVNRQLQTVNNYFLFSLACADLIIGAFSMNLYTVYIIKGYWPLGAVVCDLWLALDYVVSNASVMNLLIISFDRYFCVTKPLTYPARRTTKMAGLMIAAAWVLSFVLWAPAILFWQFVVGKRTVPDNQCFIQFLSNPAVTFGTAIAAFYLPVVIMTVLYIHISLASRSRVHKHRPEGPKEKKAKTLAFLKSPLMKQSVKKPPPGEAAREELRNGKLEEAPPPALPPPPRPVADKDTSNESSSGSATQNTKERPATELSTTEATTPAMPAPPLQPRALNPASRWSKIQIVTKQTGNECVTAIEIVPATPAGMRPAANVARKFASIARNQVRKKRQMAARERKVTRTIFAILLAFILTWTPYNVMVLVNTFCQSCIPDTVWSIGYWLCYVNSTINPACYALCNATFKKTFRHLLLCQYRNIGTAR
structure (smiles),measurement,setting,value
CNC(=O)COc1cc2cc(Nc3nc(N4CCC(C(=O)N(C)C)CC4)ncc3Cl)cc(OC)c2n(C)c1=O,Ki,[1]; read-out: Ki,878 nM
same,Ki,[1]; read-out: pKi (converted),851 nM
same,residual activity,[2],74%
same,residual activity,[3],119%
same,residual activity,[4],131%
same,residual activity,[5],96%
same,residual activity,[6],98%
same,residual activity,[7],100%
same,activity at 10 µM,[8],95% (not active)
same,residual activity,[9],113%
same,residual activity,[10],101%
same,residual activity,[11],97%
same,activity at 10 µM,hERG (KCNH2),92% (not active)
same,activity at 10 µM,[12],103% (not active)
same,residual activity,[13],142%
same,residual activity,[14],105%
same,residual activity,[15],93%
same,residual activity,[16],89%
same,residual activity,[17],93%
same,residual activity,[18],91%
same,residual activity,[19],96%
same,residual activity,[20],98%
same,residual activity,[21],98%
same,residual activity,[22],88%
same,residual activity,[23],82%
same,residual activity,[24],99%
same,residual activity,[25],91%
same,residual activity,[26],98%
same,residual activity,[27],97%
same,residual activity,[28],93%
same,residual activity,[29],100%
same,inhibition,[30],22.9%
same,inhibition,[31],-2.05%
same,inhibition,[32],28.1%
same,inhibition,[33],2.93%
same,inhibition,[34],-5.19%
same,inhibition,[35],1.38%
same,inhibition,[36],-7.06%
same,inhibition,[37],4.51%
same,inhibition,[38],39.6%
same,inhibition,Rattus norvegicus,49.5%
same,residual activity,[39],83%

# Reference: ChEMBL document CHEMBL5303764, “Data for DCP probe BI-3812” (2023)
